# Measured values reported in patent US20070128217A1 (priority 2003, published 2007).
# Columns and labels:
# [1] = system: antibodies in sera from SARS patients (sera 1a, 1b, 2, 6, 37, 62, London, SARS-yellow, SARS-green); assay type: binding, human; design: Binding of serum 6 to linear peptides of protein X1 of SARS-CoV Urbani / Binding of serum 37 to linear peptides of protein X1 of SARS-CoV Urbani / Binding of serum 6 to looped/cyclic peptide (PEPSCAN-ELISA) / Binding of serum 37 to looped/cyclic peptide (PEPSCAN-ELISA) / Binding of serum 37 to looped/cyclic peptides of protein X1 of SARS-CoV Urbani / Binding of serum 6 to linear peptides of protein X2 / Binding of serum 37 to linear peptides of protein X2 / Binding of serum 37 to looped/cyclic peptides of protein X2 of SARS-CoV Urbani / Binding of serum 6 to linear peptides of protein M of SARS-CoV Urbani / Binding of serum 37 to linear peptides of protein M of SARS-CoV Urbani / Binding of serum 6 to looped/cyclic peptides of protein M of SARS-CoV Urbani / Binding of serum 37 to looped/cyclic peptides of protein M of SARS-CoV Urbani / Binding of serum 6 to linear peptides of protein X3 of SARS-CoV Urbani / Binding of serum 37 to linear peptides of protein X3 of SARS-CoV Urbani / Binding of serum 37 to looped/cyclic peptides of protein X3 of SARS-CoV Urbani / Binding of serum 6 to linear peptides of protein X4 of SARS-CoV Urbani / Binding of serum 37 to linear peptides of protein X4 of SARS-CoV Urbani / Binding of serum 37 to looped/cyclic peptides of protein X4 of SARS-CoV Urbani / Binding of serum 6 to linear peptides of protein X5 of SARS-CoV Urbani / Binding of serum 37 to linear peptides of protein X5 of SARS-CoV Urbani / Binding of serum 37 to looped/cyclic peptides of protein X5 of SARS-CoV Urbani / Binding of serum 6 to linear peptides of protein N of SARS-CoV Urbani / Binding of serum 37 to linear peptides of protein N of SARS-CoV Urbani / Binding of serum 6 to linear peptide (PEPSCAN-ELISA) / Binding of serum 1a to looped/cyclic peptides of protein N of SARS-CoV Urbani / Binding of serum 1b to looped/cyclic peptides of protein N of SARS-CoV Urbani / Binding of serum 2 to looped/cyclic peptides of protein N of SARS-CoV Urbani / Binding of serum 6 to looped/cyclic peptides of protein N of SARS-CoV Urbani / Binding of serum 37 to looped/cyclic peptides of protein N of SARS-CoV Urbani / Binding of serum 62 to looped/cyclic peptides of protein N of SARS-CoV Urbani / Binding of serum London to looped/cyclic peptides of protein N of SARS-CoV Urbani / Binding of serum SARS-green to looped/cyclic peptides of protein N of SARS-CoV Urbani: unit not given here
# [2] = system: control sera (pooled serum of ten healthy LUMC hospital workers; commercial negative donor pooled serum from the Dutch bloodbank); assay type: binding, human; design: Binding of Control serum LUMC to linear peptides / Binding of Control serum Blood-bank to linear peptides / Binding of Control serum LUMC to looped peptides / Binding of Control Serum Blood-Bank to Looped peptides / Binding of Control serum LUMC to linear peptides of the protein M of SARS-CoV Urbani / Binding of Control serum Blood-bank to linear peptides of the protein M of SARS-CoV Urbani / Binding of Control serum LUMC to looped peptides of the protein M of SARS-CoV Urbani / Binding of Control Serum Blood-Bank to Looped peptides of the protein M of SARS-CoV Urbani: unit not given here
# [3] = system: rabbit serum obtained by immunizing a rabbit with the SARS-CoV strain Frankfurt 1; assay type: binding; design: Binding of a rabbit serum to linear peptides / Binding of a rabbit serum to looped peptides / Rabbit serum linear peptides / Rabbit serum looped peptides / Binding of a rabbit serum to linear peptides of protein N of SARS-CoV Urbani (Rabbit serum linear peptides) / Binding of a rabbit serum to looped/cyclic peptides of protein N of SARS-CoV Urbani (Rabbit serum looped peptides): unit not given here
sequence,measurement,setting,value
KHKKVSTNLCTHSFR,Binding of serum 1a to looped/cyclic peptides of protein X2 of SARS-CoV Urbani,[1],0.5
same,Binding of serum 1b to looped/cyclic peptides of protein X2 of SARS-CoV Urbani,[1],0.0
same,Binding of serum 2 to looped/cyclic peptides of protein X2 of SARS-CoV Urbani,[1],0.7
same,Binding of serum 6 to looped/cyclic peptides of protein X2 of SARS-CoV Urbani,[1],0.4
same,Binding of serum 37 to looped/cyclic peptides of protein X2 of SARS-CoV Urbani,[1],0.2
same,Binding of serum 62 to looped/cyclic peptides of protein X2 of SARS-CoV Urbani,[1],0.4
same,Binding of serum London to looped/cyclic peptides of protein X2 of SARS-CoV Urbani,[1],0.1
same,Binding of serum SARS-green to looped/cyclic peptides of protein X2 of SARS-CoV Urbani,[1],0.3
same,Binding of serum SARS-yellow to looped/cyclic peptides of protein X2 of SARS-CoV Urbani,[1],0.1
same,"Recognition of the peptide by sera of SARS-CoV infected individuals, and form (linear, looped/cyclic) in which it is recognized",[1],recognized in linear form
same,Binding of Control Serum Blood-Bank to Looped peptides,[2],0.5
same,Binding of Control serum Blood-bank to linear peptides,[2],0.9
same,Binding of Control serum LUMC to linear peptides,[2],0.6
same,Binding of Control serum LUMC to looped peptides,[2],0.7
same,Binding of a rabbit serum to linear peptides,[3],0.4
same,Binding of a rabbit serum to looped peptides,[3],0.0
KKVSTNLCTHSFRKK,Binding of serum 1a to looped/cyclic peptides of protein X2 of SARS-CoV Urbani,[1],0.5
same,Binding of serum 1b to looped/cyclic peptides of protein X2 of SARS-CoV Urbani,[1],0.3
same,Binding of serum 2 to looped/cyclic peptides of protein X2 of SARS-CoV Urbani,[1],0.7
same,Binding of serum 6 to looped/cyclic peptides of protein X2 of SARS-CoV Urbani,[1],0.5
same,Binding of serum 37 to looped/cyclic peptides of protein X2 of SARS-CoV Urbani,[1],0.5
same,Binding of serum 62 to looped/cyclic peptides of protein X2 of SARS-CoV Urbani,[1],0.6
same,Binding of serum London to looped/cyclic peptides of protein X2 of SARS-CoV Urbani,[1],0.2
same,Binding of serum SARS-green to looped/cyclic peptides of protein X2 of SARS-CoV Urbani,[1],0.3
same,Binding of serum SARS-yellow to looped/cyclic peptides of protein X2 of SARS-CoV Urbani,[1],0.5
same,"Recognition of the peptide by sera of SARS-CoV infected individuals, and form (linear, looped/cyclic) in which it is recognized",[1],recognized in linear form
same,Binding of Control Serum Blood-Bank to Looped peptides,[2],0.5
same,Binding of Control serum Blood-bank to linear peptides,[2],0.7
same,Binding of Control serum LUMC to linear peptides,[2],0.4
same,Binding of Control serum LUMC to looped peptides,[2],0.8
same,Binding of a rabbit serum to linear peptides,[3],0.3
same,Binding of a rabbit serum to looped peptides,[3],0.1
KLVFLWLLWPVTLAC,Binding of serum 1a to linear peptides of protein M of SARS-CoV Urbani,[1],0.7
same,Binding of serum 1a to looped/cyclic peptides of protein M of SARS-CoV Urbani,[1],0.6
same,Binding of serum 1b to linear peptides of protein M of SARS-CoV Urbani,[1],0.6
same,Binding of serum 1b to looped/cyclic peptides of protein M of SARS-CoV Urbani,[1],0.2
same,Binding of serum 2 to linear peptides of protein M of SARS-CoV Urbani,[1],0.5
same,Binding of serum 2 to looped/cyclic peptides of protein M of SARS-CoV Urbani,[1],0.6
same,Binding of serum 6 to linear peptides of protein M of SARS-CoV Urbani,[1],0.4
same,Binding of serum 6 to looped/cyclic peptides of protein M of SARS-CoV Urbani,[1],0.7
same,Binding of serum 37 to linear peptides of protein M of SARS-CoV Urbani,[1],0.5
same,Binding of serum 37 to looped/cyclic peptides of protein M of SARS-CoV Urbani,[1],0.6
same,Binding of serum 62 to linear peptides of protein M of SARS-CoV Urbani,[1],0.5
same,Binding of serum 62 to looped/cyclic peptides of protein M of SARS-CoV Urbani,[1],0.6
same,Binding of serum London to linear peptides of protein M of SARS-CoV Urbani,[1],0.4
same,Binding of serum London to looped/cyclic peptides of protein M of SARS-CoV Urbani,[1],0.2
same,Binding of serum SARS-green to linear peptides of protein M of SARS-CoV Urbani,[1],0.4
same,Binding of serum SARS-green to looped/cyclic peptides of protein M of SARS-CoV Urbani,[1],0.3
same,Binding of serum SARS-yellow to linear peptides of protein M of SARS-CoV Urbani,[1],0.2
same,Binding of serum SARS-yellow to looped/cyclic peptides of protein M of SARS-CoV Urbani,[1],0.5
same,Binding of Control Serum Blood-Bank to Looped peptides of the protein M of SARS-CoV Urbani,[2],0.7
same,Binding of Control serum Blood-bank to linear peptides of the protein M of SARS-CoV Urbani,[2],0.7
same,Binding of Control serum LUMC to linear peptides of the protein M of SARS-CoV Urbani,[2],0.5
same,Binding of Control serum LUMC to looped peptides of the protein M of SARS-CoV Urbani,[2],0.6
same,Rabbit serum linear peptides,[3],0.1
same,Rabbit serum looped peptides,[3],0.0
